{
  "source": "patent US4206215A",
  "about": "“Antimicrobial bis-[4-(substituted-amino)-1-pyridinium]alkanes” (Sterling Drug Inc., priority 1977, dated 1980)",
  "key": {"S. Aureus Smith": {"system": "S. Aureus Smith", "experiment": "In vitro antibacterial activity, MIC (modified Autotiter method)", "format": "cell-based, Staphylococcus aureus", "conditions": "18-20 hours at 37° C.", "summary_of_the_method": "(§1)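 Compounds are diluted serially by twofold steps in sterile water using the Autotiter, beginning with a 1,000 mcg./ml. solution; addition of inoculated double-strength semisynthetic medium with glucose yields final concentrations between 500 and 0.06 mcg./ml.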"}, "A. niger 16404": {"system": "A. niger 16404", "experiment": "In vitro antifungal activity, MIC (modified Autotiter method)", "format": "cell-based, Aspergillus niger", "conditions": "18-20 hours at 37° C.", "summary_of_the_method": "as §1"}, "T. menta. 9129": {"system": "T. menta. 9129", "experiment": "In vitro antifungal activity, MIC (modified Autotiter method)", "format": "cell-based, Trichophyton mentagrophytes", "conditions": "18-20 hours at 37° C.", "summary_of_the_method": "as §1"}, "[1]": {"system": "young adult male Swiss-Webster strain albino mice", "experiment": "Acute oral toxicity (ALD50)", "format": "in vivo", "conditions": "suspension in 1% G.T.", "experimental": "(§2) The acute oral toxicity (ALD50) of several representative examples was determined as follows: Groups of 3 young adult male Swiss-Webster strain albino mice were fasted approximately 4 hours before medication and then medicated once orally by stomach tube."}, "[2]": {"experiment": "Acute oral toxicity (ALD50)", "format": "in vivo", "conditions": "mouse, in vivo, po, mice, suspension in 1% gum tragacanth; read-out: 7-Day ALD50", "experimental": "as §2"}, "Ps. aerug. MGH-2": {"system": "Ps. aerug. MGH-2", "experiment": "In vitro antibacterial activity, MIC (modified Autotiter method)", "format": "cell-based, Pseudomonas aeruginosa", "conditions": "18-20 hours at 37° C.", "summary_of_the_method": "as §1"}, "S. Aureus ATCC 6538": {"system": "S. Aureus ATCC 6538", "experiment": "Effect of serum on bacteriostatic activity (serial tube dilution test)", "format": "cell-based, Staphyloccocus aureus", "conditions": "for MIC: Staphylococcus aureus, ATCC6538"}, "[3]": {"system": "Herpes simplex type 2 virus", "experiment": "Virucidal activity in vitro (plaque inhibition test)", "format": "cell-based", "conditions": "2 mg. of test compound on growth medium", "experimental": "Virucidal activity of representative examples against Herpes simplex type 2 virus was determined in vitro employing a procedure similar to the plaque inhibition test for detection of specific inhibitors of DNA-containing viruses published by E. C. Herrmann, Jr., Proc. Soc. Exp. Biol. Med. 107, 142 (1961) wherein 2 mg. of the test compound was placed on the surface of the growth medium."}, "C. albicans Wisc.": {"system": "C. albicans Wisc.", "experiment": "In vitro antifungal activity, MIC (modified Autotiter method)", "format": "cell-based, Candida albicans", "conditions": "18-20 hours at 37° C.", "summary_of_the_method": "as §1"}, "C. albicans 10231": {"system": "C. albicans 10231", "experiment": "In vitro antifungal activity, MIC (modified Autotiter method)", "format": "cell-based, Candida albicans", "conditions": "18-20 hours at 37° C.", "summary_of_the_method": "as §1"}, "E. Coli ATCC 8739": {"system": "E. Coli ATCC 8739", "experiment": "Effect of serum on bacteriostatic activity (serial tube dilution test)", "format": "cell-based, Escherichia coli", "conditions": "for MIC: Escherichia coli, ATCC8739", "summary_of_the_method": "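Bacteriostatic potency against Escherichia coli ATCC 8739 was measured with the standard serial tube dilution test. Minimum inhibitory concentrations were determined in pairs, with the test medium either lacking serum or containing 40% horse serum heat-inactivated at 56° C. for 30 min. Serum impact was reported as the fold increase in MIC (mcg./ml.).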"}, "S. pyogen. C203": {"system": "S. pyogen. C203", "experiment": "In vitro antibacterial activity, MIC (modified Autotiter method)", "format": "cell-based, Streptococcus pyogenes", "conditions": "18-20 hours at 37° C.", "summary_of_the_method": "as §1"}, "K. pneum. 39645": {"system": "K. pneum. 39645", "experiment": "In vitro antibacterial activity, MIC (modified Autotiter method)", "format": "cell-based, Klebsiella pneumoniae", "conditions": "18-20 hours at 37° C.", "summary_of_the_method": "as §1"}, "P. mirab. MGH-1": {"system": "P. mirab. MGH-1", "experiment": "In vitro antibacterial activity, MIC (modified Autotiter method)", "format": "cell-based, Proteus mirabilis", "conditions": "18-20 hours at 37° C.", "summary_of_the_method": "as §1"}, "E. coli 100/B22": {"system": "E. coli 100/B22", "experiment": "In vitro antibacterial activity, MIC (modified Autotiter method)", "format": "cell-based, Escherichia coli", "conditions": "18-20 hours at 37° C.", "summary_of_the_method": "as §1"}, "E. coli AB1932-1": {"system": "E. coli AB1932-1", "experiment": "In vitro antibacterial activity, MIC (modified Autotiter method)", "format": "cell-based, Escherichia coli", "conditions": "18-20 hours at 37° C.", "summary_of_the_method": "as §1"}, "E. coli Vogel": {"system": "E. coli Vogel", "experiment": "In vitro antibacterial activity, MIC (modified Autotiter method)", "format": "cell-based, Escherichia coli", "conditions": "18-20 hours at 37° C.", "summary_of_the_method": "as §1"}, "[4]": {"system": "Streptococcus mutans OMZ-61", "experiment": "Dental plaque-preventive effectiveness in the presence of sterile human saliva (50%)", "format": "cell-based", "conditions": "50% sterile human saliva", "experimental": "The dental plaque preventive activity of certain of the compounds of the present invention was determined by measuring the ability of these compounds to inhibit the production of dental plaque by Streptococcus mutans OMZ-61 as follows:\nA culture medium for the plaque-producing Streptococcus mutans OMZ-61 containing 1.5 g. of BBL beef extract, 5 g. of sodium chloride, 10 g. of dehydrated trypticase, 5 g. of sucrose and sufficient distilled water to give a total volume of 1000 ml. is adjusted to pH 7.0 and sterilized by membrane filtration. The medium is dispensed aseptically in 10-ml. aliquots into 150×16 mm. test tubes and stored at refrigeration temperature until used.\nTwo concentrations of the compound to be tested are prepared by dissolving 100 mg. of the compound in 1 ml. of distilled water with the aid of sufficient 0.1 N sodium hydroxide, 10% dimethylsulfoxide or 10% N,N-dimethylformamide and diluting the resulting solution to 10 ml. with distilled water. This 1.0% solution and a 1:10 dilution in distilled water (0.1%) are sterilized by membrane filtration before use.\nA sterile piece of plaque-free natural tooth enamel or synthetic hydroxylapatite is suspended in each concentration of compound for two 1-minute periods, each followed by a 1-minute air drying period. Each piece is then suspended and agitated for 5 minutes in individual test tubes containing sterile distilled water (rinse). They are then suspended in 10 ml. of liquid beef extract medium to which has been added 0.3 ml. of a 24-hr. anaerobic culture of Streptococcus mutans. The tubes containing the \"treated\" hydroxylapatite and the Streptococcus mutans are then incubated anaerobically at 37° C. for 24 hours. The same process of two 1-minute soaks in the solution of compound, each followed by 1 minute of air drying and the final 5-minute rinse is repeated before once again suspending the hydroxylapatite in a fresh tube containing 10 ml. of beef extract medium and 0.3 ml. of inoculum. At the end of the second 24-hour period, each piece of hydroxylapatite is rinsed for 1 minute in 3 successive tubes of distilled water. These are then suspended for 1 minute in a solution of F, D & C Red No. 3 dye. This staining procedure is used in order to identify more easily the development of plaque after the 48-hour period of exposure to the plaque-producing organism. The staining period is followed by another 10-second rinse to remove excess dye. Any plaque formation stains a brilliant pink. […] Active compounds are tested at successively lower doses in order to determine the minimum effective concentration. On some occasions, the interference of plaque production is caused by the inhibition of growth of the organism in the culture medium because the compound has been leached from the hydroxylapatite to produce an antibacterial level in the medium. When this occurs, the compound is tested at lower concentrations until the growth of the organism in the surrounding medium is equal to that in the nonmedicated control culture. Plaque may or may not be formed at these lower concentrations.\nDental plaque-preventive effectiveness in the presence of sterile human saliva (50%) was determined for representative examples."}, "[5]": {"conditions": "25 mg/kg (so in the source) oral"}},
  "note": "Where two headings read alike, the source gives them in different places.",
  "data": [
    {"compound": "CCCCCCCCNc1cc[n+](CCCCCCCCCC[n+]2ccc(NCCCCCCCC)cc2)cc1", "note": "[Example 9D, 1,10-bis-[4-(octylamino)-1-pyridinium]decane dibromide]", "values": [
      {"measurement": "MIC S. Aureus Smith", "setting": "S. Aureus Smith", "result": 0.5, "unit": "µg/mL"},
      {"measurement": "MIC A. niger 16404", "setting": "A. niger 16404", "result": 1.95, "unit": "µg/mL"},
      {"measurement": "MIC T. menta. 9129", "setting": "T. menta. 9129", "result": 1.0, "unit": "µg/mL"},
      {"measurement": "Mortality 7 Days", "setting": "[1]; [5]", "result": "0/3"},
      {"measurement": "Mortality 24 Hrs", "setting": "[1]; [5]", "result": "0/3"},
      {"measurement": "Mortality 7 Days", "setting": "[1]; 250 mg/kg oral", "result": "0/3"},
      {"measurement": "Mortality 24 Hrs", "setting": "[1]; 250 mg/kg oral", "result": "0/3"},
      {"measurement": "Mortality 7 Days", "setting": "[1]; 500 mg/kg oral", "result": "0/3"},
      {"measurement": "Mortality 24 Hrs", "setting": "[1]; 500 mg/kg oral", "result": "0/3"},
      {"measurement": "Mortality 7 Days", "setting": "[1]; 1000 mg/kg oral", "result": "0/3"},
      {"measurement": "Mortality 24 Hrs", "setting": "[1]; 1000 mg/kg oral", "result": "0/3"},
      {"measurement": "LD50 at 168 h", "setting": "[2]", "result": "> 1000", "unit": "mg/kg"},
      {"measurement": "MIC Ps. aerug. MGH-2", "setting": "Ps. aerug. MGH-2", "result": 3.9, "unit": "µg/mL"},
      {"measurement": "Fold Increase in MIC S. Aureus ATCC 6538", "setting": "S. Aureus ATCC 6538; 40% vs 0% horse serum", "result": 16, "unit": "fold"},
      {"measurement": "MIC", "setting": "S. Aureus ATCC 6538; 40% heat inactivated horse serum, read-out: MIC S. Aureus ATCC 6538 40% Serum", "result": 7.8, "unit": "µg/mL"},
      {"measurement": "MIC", "setting": "S. Aureus ATCC 6538; read-out: MIC S. Aureus ATCC 6538 0% Serum", "result": 0.5, "unit": "µg/mL"},
      {"measurement": "Virucidal activity against Herpes simplex type 2 virus", "setting": "[3]", "result": "active"},
      {"measurement": "MIC C. albicans Wisc.", "setting": "C. albicans Wisc.", "result": 1.0, "unit": "µg/mL"},
      {"measurement": "MIC C. albicans 10231", "setting": "C. albicans 10231", "result": 1.0, "unit": "µg/mL"},
      {"measurement": "Fold Increase in MIC E. Coli ATCC 8739", "setting": "E. Coli ATCC 8739; 40% vs 0% horse serum", "result": 64, "unit": "fold"},
      {"measurement": "MIC", "setting": "E. Coli ATCC 8739; 40% heat inactivated horse serum, read-out: MIC E. Coli ATCC 8739 40% Serum", "result": 62.5, "unit": "µg/mL"},
      {"measurement": "MIC", "setting": "E. Coli ATCC 8739; read-out: MIC E. Coli ATCC 8739 0% Serum", "result": 1, "unit": "µg/mL"},
      {"measurement": "MIC S. pyogen. C203", "setting": "S. pyogen. C203", "result": 0.5, "unit": "µg/mL"},
      {"measurement": "MIC K. pneum. 39645", "setting": "K. pneum. 39645", "result": 3.9, "unit": "µg/mL"},
      {"measurement": "MIC P. mirab. MGH-1", "setting": "P. mirab. MGH-1", "result": 3.9, "unit": "µg/mL"},
      {"measurement": "MIC E. coli 100/B22", "setting": "E. coli 100/B22", "result": 1.95, "unit": "µg/mL"},
      {"measurement": "MIC E. coli AB1932-1", "setting": "E. coli AB1932-1", "result": 1.0, "unit": "µg/mL"},
      {"measurement": "MIC E. coli Vogel", "setting": "E. coli Vogel", "result": 1.95, "unit": "µg/mL"},
      {"measurement": "Dental Plaque Preventive Activity in 50% saliva Minimum Effective Conc. (%)", "setting": "[4]", "result": "Ca. 0.005%"}
    ]}
  ]
}
